{"source": "patent EP1964566A1", "about": "“PREPARATION WITH IMPROVED BIOABSORBABILITY OF SAPROPTERIN HYDROCHLORIDE” (Asubio Pharma Co., Ltd., priority 2005, dated 2007)", "origin": "cited, not measured here", "conditions": "in vivo, po"}
{"substance": "sapropterin hydrochloride", "values": [{"measurement": "bioavailability", "result": "1-2%"}]}
